Patent US11066414B2, “Cot modulators and methods of use thereof” (Gilead Sciences, Inc., priority 2015, dated 2021)
Where two headings read alike, the source gives them in different places.

What was measured:
Human Cot = Human Cot (Homo sapiens (Human), UniProt P41279); test: High Throughput Cot Biochemical Assay
TNFα = test: Cot Monocyte TNFα Cell Based Assay
[1] = IC50 HTRF, Cot HTRF (TR-FRET) biochemical assay
[2] = Homo sapiens, Monocyte, read-out: EC50 TNF, LPS-stimulated human monocytes, TNFα
[3] = IC50 HTRF, Cot HTRF (TR-FRET KinEASE) biochemical assay, 400 μM ATP
[4] = Homo sapiens, Monocyte, read-out: EC50 TNF, LPS-stimulated human monocytes, TNFα TR-FRET

Sequence of Human Cot (P41279 30-397): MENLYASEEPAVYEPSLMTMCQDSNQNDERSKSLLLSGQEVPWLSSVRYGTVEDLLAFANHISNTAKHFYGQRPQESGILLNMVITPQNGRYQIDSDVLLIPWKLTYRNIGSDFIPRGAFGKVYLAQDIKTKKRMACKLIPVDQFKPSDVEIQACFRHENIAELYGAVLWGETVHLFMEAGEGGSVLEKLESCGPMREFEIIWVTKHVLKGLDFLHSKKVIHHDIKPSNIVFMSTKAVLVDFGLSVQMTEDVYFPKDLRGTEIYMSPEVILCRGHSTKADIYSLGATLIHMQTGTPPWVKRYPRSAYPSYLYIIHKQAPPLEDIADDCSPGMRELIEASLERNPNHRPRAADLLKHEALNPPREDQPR

Compound | IC50 (Human Cot; [1]) | EC50 (TNFα; [2]) | further results
CC(C)(C)N1CCC(n2cc([C@@H](Nc3cc(Cl)c4ncc(C#N)c(Nc5ccc(F)c(Cl)c5)c4c3)c3csc4ccc(Cl)cc34)nn2)CC1 [Example 349, (S)-6-(((1-(1-(tert-butyl)piperidin-4-yl)-1H-1,2,3-triazol-4-yl)(5-chlorobenzo[b]-thiophen-3-yl)methyl)amino)-8-chloro-4-((3-chloro-4-fluorophenyl)amino)quinoline-3-carbonitrile] | 41 nM | 718 nM | –
CC(C)(C)CNc1c(C#N)cnc2c(C#N)cc(N[C@H](c3cn(C4(C)CC4)nn3)c3cccc4ncccc34)cc12 [Example 578, (S)-6-(((1-(1-methylcyclopropyl)-1H-1,2,3-triazol-4-yl)(quinolin-5-yl)methyl)amino)-4-(neopentylamino)quinoline-3,8-dicarbonitrile] | 2 nM | 32 nM | –
CC[C@@H](Nc1c(C#N)cnc2c(Cl)cc(N[C@@H](c3cccnc3)c3cn(CC(F)(F)F)nn3)cc12)c1ccccc1 [Example 195, 8-chloro-4-(((R)-1-phenylpropyl)amino)-6-(((S)-pyridin-3-yl(1-(2,2,2-trifluoroethyl)-1H-1,2,3-triazol-4-yl)methyl)amino)quinoline-3-carbonitrile] | 4 nM | 132 nM | –
Cc1nc(F)ccc1[C@H](Nc1cc(Cl)c2ncc(C#N)c(NCC(C)(C)C)c2c1)c1cn(C2(CO)COC2)nn1 [Example 648, (S)-8-chloro-6-(((6-fluoro-2-methylpyridin-3-yl)(1-(3-(hydroxymethyl)oxetan-3-yl)-1H-1,2,3-triazol-4-yl)methyl)amino)-4-(neopentylamino)quinoline-3-carbonitrile] | 3 nM | 114 nM | –
Cc1ncsc1[C@H](Nc1cc(C#N)c2ncc(C#N)c(NCC(C)(C)C)c2c1)c1cn(C2(C(F)F)CC2)nn1 [Example 640, (R)-6-(((1-(1-(difluoromethyl)-cyclopropyl)-1H-1,2,3-triazol-4-yl)(4-methylthiazol-5-yl)methyl)amino)-4-(neopentylamino)quinoline-3,8-dicarbonitrile] | 3 nM | 65 nM | –
[2H][C@](Nc1cc(Cl)c2ncc(C#N)c(Nc3cnc(F)c(F)c3)c2c1)(c1cncc(C#N)c1)c1cn(C2CC2)nn1 [Example 143, (S)-8-chloro-6-(((5-cyanopyridin-3-yl)(1-cyclopropyl-1H-1,2,3-triazol-4-yl)methyl-d)amino)-4-((5,6-difluoropyridin-3-yl)amino)quinoline-3-carbonitrile] | 16 nM | 898 nM | –
Cc1nc(F)ccc1[C@H](Nc1cc(C#N)c2ncc(C#N)c(NCC(C)(C)c3ccccc3)c2c1)c1cn(C2(C(F)(F)F)CC2)nn1 [Example 614, (S)-6-(((6-fluoro-2-methylpyridin-3-yl)(1-(1-(trifluoromethyl)cyclopropyl)-1H-1,2,3-triazol-4-yl)methyl)amino)-4-((2-methyl-2-phenylpropyl)amino)quinoline-3,8-dicarbonitrile] | 9 nM | 154 nM | –
CC(C)(C)CNc1c(C#N)cnc2c(C#N)cc(N[C@@H](c3ccc(C#N)nc3)c3cn(C4(C(F)(F)F)CC4)nn3)cc12 [Example 826, (S)-6-(((6-cyanopyridin-3-yl)(1-(1-(trifluoromethyl)cyclopropyl)-1H-1,2,3-triazol-4-yl)methyl)amino)-4-(neopentylamino)quinoline-3,8-dicarbonitrile] | – | – | IC50 (Human Cot; [3]): 51 nM; EC50 (TNFα; [4]): 1000 nM
N#CCC[C@@H](Nc1c(C#N)cnc2c(Cl)cc(N[C@H](c3cn(C4CC4)nn3)c3csc4c3CCN(C3COC3)C4)cc12)c1ccccc1 [Example 84, 8-chloro-4-(((R)-3-cyano-1-phenylpropyl)amino)-6-(((S)-(1-cyclopropyl-1H-1,2,3-triazol-4-yl)(6-(oxetan-3-yl)-4,5,6,7-tetrahydrothieno[2,3-c]pyridin-3-yl)methyl)amino)quinoline-3-carbonitrile] | 1 nM | 10 nM | –
[2H][C@](Nc1cc(Cl)c2ncc(C#N)c(Nc3cnc(F)c(F)c3)c2c1)(c1ccc(F)nc1)c1cn(C2CC2)nn1 [Example 140, (S)-8-chloro-6-(((1-cyclopropyl-1H-1,2,3-triazol-4-yl)(6-fluoropyridin-3-yl)methyl-d)amino)-4-((5,6-difluoropyridin-3-yl)amino)quinoline-3-carbonitrile] | 3 nM | 183 nM | –
CC1(C)COCCC1Nc1c(C#N)cnc2c(C#N)cc(N[C@H](c3cn(C4(C(F)(F)F)CC4)nn3)c3cccc4ncsc34)cc12 (stereo partly drawn) [Example 452, 6-(((S)-benzo[d]thiazol-7-yl(1-(1-(trifluoromethyl)cyclopropyl)-1H-1,2,3-triazol-4-yl)methyl)amino)-4-((3,3-dimethyltetrahydro-2H-pyran-4-yl)amino)quinoline-3,8-dicarbonitrile] | 4 nM | 73 nM | –
CC(C)(C)CNc1c(C#N)cnc2c(Cl)cc(N[C@H](c3cn([C@@H]4C[C@@H]4F)nn3)c3cccc4ncccc34)cc12 [Example 692, 8-chloro-6-(((SH l-((lR,2S)-2-fluorocyclopropyl)-1H-1,2,3-triazol-4-yl)(quinolin-5-yl)methyl)amino)-4-(neopentylamino)quinoline-3-carbonitrile] | – | – | IC50 (Human Cot; read-out: IC50 HTRF, Cot HTRF (TR-FRET) biochemical assay): 3 nM; EC50 (TNFα; read-out: EC50 TNF, LPS-stimulated human monocytes, TNFα): 38 nM
COc1nccc2c([C@H](Nc3cc(Cl)c4ncc(C#N)c(NCC(C)(C)C)c4c3)c3nnn(C4(C(F)(F)F)CC4)c3F)cccc12 [Example 922, (S)-8-chloro-6-(((5-fluoro-1-(1-(trifluoromethyl)cyclopropyl)-1H-1,2,3-triazol-4-yl)(1-methoxylsoquinolin-5-yl)methyl)amino)-4-(neopentylamino)quinoline-3-carbonitrile] | – | – | IC50 (Human Cot; read-out: IC50 HTRF, Cot HTRF (TR-FRET KinEASE) biochemical assay, 400 μM ATP): 11 nM; EC50 (TNFα; read-out: EC50 TNF, LPS-stimulated human monocytes, TNFα TR-FRET): 225 nM
Cc1nc(Cl)ccc1[C@H](Nc1cc(Cl)c2ncc(C#N)c(Nc3ccc(F)c(Cl)c3)c2c1)c1cn(CCO)nn1 [Example 328, (S)-8-chloro-6-(((6-chloro-2-methylpyridin-3-yl)(1-(2-hydroxyethyl)-1H-1,2,3-triazol-4-yl)methyl)amino)-4-((3-chloro-4-fluorophenyl)amino)-quinoline-3-carbonitrile] | 4 nM | 272 nM | –
Cc1nc(F)ccc1[C@H](Nc1cc(Cl)c2ncc(C#N)c(NCC(C)(C)C)c2c1)c1cn(C2(C(=O)N3CCOCC3)CC2)nn1 [Example 555, (S)-8-chloro-6-(((6-fluoro-2-methylpyridin-3-yl)(1-(1-(morpholine-4-carbonyl)cyclopropyl)-1H-1,2,3-triazol-4-yl)methyl)amino)-4-(neopentylamino)quinoline-3-carbonitrile] | 7 nM | 208 nM | –
Cc1nc(F)ccc1[C@H](Nc1cc(C#N)c2ncc(C#N)c(NCC(C)(C)C)c2c1)c1cn(CC(C)(F)F)nn1 [Example 836, (S)-6-(((1-(2,2-difluoropropyl)-1H-1,2,3-triazol-4-yl)(6-fluoro-2-methylpyridin-3-yl)methyl)amino)-4-(neopentylamino)quinoline-3,8-dicarbonitrile] | – | – | IC50 (Human Cot; [3]): 4 nM; EC50 (TNFα; [4]): 52 nM
CC(C)(C)CNc1c(C#N)cnc2c(Cl)cc(N[C@H](c3cn(C4CC4)nn3)c3csc4cnccc34)cc12 [Example 738, (S)-8-chloro-6-(((1-cyclopropyl-1H-1,2,3-triazol-4-yl)(thieno[2,3-c]pyridin-3-yl)methyl)amino)-4-(neopentylamino)quinoline-3-carbonitrile] | 2 nM | 40 nM | –
